Experimental data: patent US20240383911A1, “AZAINDAZOLE MACROCYCLE COMPOUNDS AND USES THEREOF” (BROADENBIO CO., LTD, priority 2021, published 2024)

Key:
HPK1 = HPK1 (Homo sapiens, UniProt Q92918); assay: HPK1 kinase activity inhibition test (ADP-Glo, luminescence); assay type: biochemical; settings: 2 μM ATP, 5 nM HPK1, read-out: IC50, inhibitory effects on HPK1 kinase activity
Protocol: The kinase activity of HPK1 is manifested as activity of autophosphorylation and phosphorylation of downstream substrates. In the process of autophosphorylation, additional substrates are not required, and ATP is consumed to generate ADP. The amount of the product is measured by ADP-Glo reagent and luminescence method to reflect kinase activity.
(§1) Tested compounds: compounds prepared in the Examples of this invention.
Preparation of compound stock solution: dissolve the test compound in 100% DMSO to make a 10 mM stock solution;
Preparation of 4×Kinase Reaction Buffer:
Preparation of 2×HPK1 Kinase Solution:
Preparation of 4×ATP Mixture:
Dilute the stock solution of the test compound by 5 times with 100% DMSO, make a 4-fold equal dilution in a 96-well dilution plate, add 1 μL of the compound to 49 μL of kinase reaction buffer, and shake on a microplate shaker for 20 minutes. Transfer 2 μL of 2×HPK1 kinase solution to 384 reaction plate, add 1 μL of the test compound to the 384 reaction plate (Greiner, Cat #784075), centrifuge for 1 minute (1000 rpm/min), incubate at 25° C. for 10 minutes. Transfer 1 μL of the 4×ATP mixture to a 384 reaction plate, centrifuge for 1 minute (1000 rpm/min), and incubate at 25° C. for 60 minutes. In the reaction system, the final concentration of DMSO is 0.5%. Transfer 4 μL of ADP-Glo to a 384 reaction plate, centrifuge for 1 minute (1000 rpm/min), and incubate at 25° C. for 40 minutes. Transfer 8 μL detection solution to a 384 reaction plate, centrifuge for 1 minute (1000 rpm/min), and incubate at 25° C. for 40 minutes. The […] is read using a Biotek multi-function plate reader, and the IC50 (half inhibitory concentration) of the compound is obtained using a four-coefficient nonlinear fitting formula.

Human Jurkat-E6-1 cells = assay: Detection of IL-2 production by Jurkat cells using ELISA; assay type: cell-based; settings: anti-CD3/anti-CD28 stimulation 24 hours, read-out: Percentage of the amount of IL-2 secreted by compound treated vs DMSO-treated cells; for activity at 1 µM: tested compound 1.0 μM; for activity at 0.33 µM: tested compound 0.33 μM
Protocol: as §1
Human Jurkat-E6-1 cells were incubated with various concentrations of tested compounds for 30 minutes in a humidified incubator at 37° C. and 5% CO2. Cells were transferred to cell culture plates pre-coated with anti-human CD3 antibody, then soluble anti-human CD28 antibody was added, and cells were stimulated for 24 hours at 37° C. and 5% CO2 in a humidified incubator. The cell culture medium was collected after centrifugation, and was then transferred to a 96-well transparent microtiter plate (Thermo) pre-coated with anti-human IL-2 antibody, incubated at room temperature for 2 hours with gently shaking, washed with washing buffer for 4 times, and then followed the ELISA MAX Deluxe Set Human IL-2 (BioLegend) kit procedures, used a microplate reader (Molecular Device, i3X) to read the GD value at 450 nm. The best standard curve was selected by the microplate reader application software, and the corresponding concentration was calculated according to the GD value of the standard. Results are expressed as a percentage (%) of the amount of IL-2 secreted by compound-treated vs DMSO-treated cells.

Chain of HPK1 (Q92918 whole entry): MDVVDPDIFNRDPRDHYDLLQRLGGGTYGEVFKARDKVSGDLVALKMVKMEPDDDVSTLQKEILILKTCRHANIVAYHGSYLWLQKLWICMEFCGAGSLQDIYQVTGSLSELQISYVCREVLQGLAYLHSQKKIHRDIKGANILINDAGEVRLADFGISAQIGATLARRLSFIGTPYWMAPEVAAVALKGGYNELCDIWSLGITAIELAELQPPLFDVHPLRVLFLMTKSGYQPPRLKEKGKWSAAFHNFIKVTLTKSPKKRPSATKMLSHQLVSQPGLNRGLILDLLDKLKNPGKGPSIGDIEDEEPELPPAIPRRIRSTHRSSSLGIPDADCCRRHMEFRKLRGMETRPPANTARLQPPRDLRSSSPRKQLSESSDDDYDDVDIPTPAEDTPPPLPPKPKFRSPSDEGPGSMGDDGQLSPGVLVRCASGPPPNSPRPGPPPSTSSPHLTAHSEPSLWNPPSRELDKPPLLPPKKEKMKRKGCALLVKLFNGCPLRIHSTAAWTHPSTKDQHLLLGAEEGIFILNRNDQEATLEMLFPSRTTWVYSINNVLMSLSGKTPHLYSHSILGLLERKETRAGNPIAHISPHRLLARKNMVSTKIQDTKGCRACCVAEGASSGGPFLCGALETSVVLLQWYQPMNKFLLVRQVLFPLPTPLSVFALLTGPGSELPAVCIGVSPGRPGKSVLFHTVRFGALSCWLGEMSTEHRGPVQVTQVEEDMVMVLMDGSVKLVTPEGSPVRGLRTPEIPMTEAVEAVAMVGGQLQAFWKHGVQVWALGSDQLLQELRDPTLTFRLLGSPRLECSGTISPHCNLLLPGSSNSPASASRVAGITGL

CN1CCN(C2CCN(c3ccc4cc3OCCCOCc3cccc(F)c3-c3cc5c-4n[nH]c5cn3)CC2)CC1 [Compound 109, 17-fluoro-5-[4-(4-methylpiperazin-1-yl)piperidin-1-yl]-7,11-dioxa-20,23,24-triazapentacyclo[17.5.2.1^2,6.0^13,18.0^22,25]heptacosa-1(24),2,4,6(27),13(18),14,16,19,21,25-decaene]
IC50 (HPK1): ≤ 5 nM
activity at 1 µM (Human Jurkat-E6-1 cells): 264%

CN1CCN(c2ccc3cc2OCCCCOCc2cccc(F)c2-c2cc4c-3n[nH]c4cn2)CC1 [Compound 100, 18-fluoro-5-(4-methylpiperazin-1-yl)-7,12-dioxa-21,24,25-triazapentacyclo[18.5.2.1^2,6.0^14,19.0^23,26]octacosa-1(25),2(28),3,5,14(19),15,17,20,22,26-decaene]
IC50 (HPK1): 5 to 50 nM
activity at 1 µM (Human Jurkat-E6-1 cells): 235%

CN1CCN(c2ccc3cc2OCCCOCc2cccc(F)c2-c2ncc4[nH]nc-3c4n2)CC1 [Compound 115, 17-fluoro-5-(4-methylpiperazin-1-yl)-7,11-dioxa-20,23,24,26-tetraazapentacyclo[17.5.2.1^2,6.0^13,18.0^22,25]heptacosa-1(24),2,4,6(27),13(18),14,16,19,21,25-decaene]
IC50 (HPK1): 5 to 50 nM
activity at 1 µM (Human Jurkat-E6-1 cells): 263%

O=C1OC[C@@H]2CN(c3ccc4cc3OCCCOCc3cccc(F)c3-c3cc5c-4n[nH]c5cn3)CCN12 [Compound 124, (8aS)-7-{17-fluoro-7,11-dioxa-20,23,24-triazapentacyclo[17.5.2.1^2,6.0^13,18.0^22,25]heptacosa-1(24),2,4,6(27),13(18),14,16,19,21,25-decaen-5-yl}-hexahydro-1H-[1,3]oxazolo[3,4-a]pyrazin-3-one]
IC50 (HPK1): ≤ 5 nM
activity at 1 µM (Human Jurkat-E6-1 cells): 630%

Fc1cccc2c1-c1cc3c(n[nH]c3cn1)-c1ccc(N3CC4CC(C3)N4C3COC3)c(c1)OCCCO2 [Compound 146, 16-fluoro-5-[6-(oxetan-3-yl)-3,6-diazabicyclo[3.1.1]heptan-3-yl]-7,11-dioxa-19,22,23-triazapentacyclo[16.5.2.1^2,6.0^12,17.0^21,24]hexacosa-1(23),2,4,6(26),12(17),13,15,18,20,24-decaene]
IC50 (HPK1): ≤ 5 nM
activity at 1 µM (Human Jurkat-E6-1 cells): 476%

CN1C[C@@H]2CN(c3ccc4cc3OCCCOCc3cccc(F)c3-c3cc5c-4n[nH]c5cn3)CCN2CC1=O [Compound 128, (9aS)-8-{17-fluoro-7,11-dioxa-20,23,24-triazapentacyclo[17.5.2.1^2,6.0^13,18.0^22,25]heptacosa-1(24),2,4,6(27),13(18),14,16,19,21,25-decaen-5-yl}-2-methyl-octahydro-1H-[1,4]diazino[1,2-a]pyrazin-3-one]
IC50 (HPK1): ≤ 5 nM
activity at 0.33 µM (Human Jurkat-E6-1 cells): 452%

CN1C[C@H]2CN(c3ccc4cc3OCCCOCc3cccc(F)c3-c3cc5c-4n[nH]c5cn3)CCN2CC1=O [Compound 127, (9aR)-8-{17-fluoro-7,11-dioxa-20,23,24-triazapentacyclo[17.5.2.1^2,6.0^13,18.0^22,25]heptacosa-1(24),2,4,6(27),13(18),14,16,19,21,25-decaen-5-yl}-2-methyl-octahydro-1H-[1,4]diazino[1,2-a]pyrazin-3-one]
IC50 (HPK1): ≤ 5 nM
activity at 0.33 µM (Human Jurkat-E6-1 cells): 475%

OC1CCN(c2ccc3cc2OCCCOCc2cccc(F)c2-c2cc4c-3n[nH]c4cn2)CC1 [Compound 107, 17-fluoro-5-(4-hydroxypiperidin-1-yl)-7,11-dioxa-20,23,24-triazapentacyclo[17.5.2.1^2,6.0^13,18.0^22,25]heptacosa-1(24),2,4,6(27),13(18),14,16,19,21,25-decaene]
IC50 (HPK1): ≤ 5 nM
activity at 1 µM (Human Jurkat-E6-1 cells): 345%

OC1(CN2CCOCC2)CCN(c2ccc3cc2OCCCOc2cccc(F)c2-c2cc4c-3n[nH]c4cn2)CC1 [Compound 113, 1-{16-fluoro-7,11-dioxa-19,22,23-triazapentacyclo[16.5.2.1^2,6.0^12,17.0^21,24]hexacosa-1(23),2,4,6(26),12(17),13,15,18,20,24-decaen-5-yl}-4-[(morpholin-4-yl)methyl]piperidin-4-ol]
IC50 (HPK1): 5 to 50 nM
activity at 0.33 µM (Human Jurkat-E6-1 cells): 265%

CN1CCN(C2CCN(c3ccc4cc3OCCCOc3cccc(F)c3-c3cc5c-4n[nH]c5cn3)CC2)CC1 [Compound 108, 16-fluoro-5-[4-(4-methylpiperazin-1-yl)piperidin-1-yl]-7,11-dioxa-19,22,23-triazapentacyclo[16.5.2.1^2,6.0^12,17.0^21,24]hexacosa-1(23),2,4,6(26),12(17),13,15,18,20,24-decaene]
IC50 (HPK1): ≤ 5 nM
activity at 0.33 µM (Human Jurkat-E6-1 cells): 213%

CN1CCN(c2ccc3cc2OCCCOCc2cccc(F)c2-c2cc4c-3n[nH]c4cn2)CC1(C)C [Compound 17, 17-fluoro-5-(3,3,4-trimethylpiperazin-1-yl)-7,11-dioxa-20,23,24-triazapentacyclo[17.5.2.1^2,6.0^13,18.0^22,25]heptacosa-1(24),2,4,6(27),13(18),14,16,19,21,25-decaene]
IC50 (HPK1): ≤ 5 nM
activity at 0.33 µM (Human Jurkat-E6-1 cells): 439%

Fc1cccc2c1-c1cc3c(n[nH]c3cn1)-c1ccc(N3CCC(N4CCOCC4)CC3)c(c1)OCCCOC2 [Compound 105, 17-fluoro-5-[4-(morpholin-4-yl)piperidin-1-yl]-7,11-dioxa-20,23,24-triazapentacyclo[17.5.2.1^2,6.0^13,18.0^22,25]heptacosa-1(24),2,4,6(27),13(18),14,16,19,21,25-decaene]
IC50 (HPK1): ≤ 5 nM
activity at 0.33 µM (Human Jurkat-E6-1 cells): 313%

OC1CCN(c2ccc3cc2OCCCOc2cccc(F)c2-c2cc4c-3n[nH]c4cn2)CC1 [Compound 106, 16-fluoro-5-(4-hydroxypiperidin-1-yl)-7,11-dioxa-19,22,23-triazapentacyclo[16.5.2.1^2,6.0^12,17.0^21,24]hexacosa-1(23),2,4,6(26),12(17),13,15,18,20,24-decaene]
IC50 (HPK1): 5 to 50 nM
activity at 1 µM (Human Jurkat-E6-1 cells): 504%

CN(C)C1(C)CCN(c2ccc3cc2OCCCOc2cccc(F)c2-c2cc4c-3n[nH]c4cn2)CC1 [Compound 110, 1-{16-fluoro-7,11-dioxa-19,22,23-triazapentacyclo[16.5.2.1^2,6.0^12,17.0^21,24]hexacosa-1(23),2,4,6(26),12(17),13,15,18,20,24-decaen-5-yl}-N,N,4-trimethylpiperidin-4-amine]
IC50 (HPK1): ≤ 5 nM
activity at 0.33 µM (Human Jurkat-E6-1 cells): 222%

Fc1cccc2c1-c1cc3c(n[nH]c3cn1)-c1ccc(N3CCC(N4CCOCC4)CC3)c(c1)OCCCO2 [Compound 104, 16-fluoro-5-[4-(morpholin-4-yl)piperidin-1-yl]-7,11-dioxa-19,22,23-triazapentacyclo[16.5.2.1^2,6.0^12,17.0^21,24]hexacosa-1(23),2,4,6(26),12(17),13,15,18,20,24-decaene]
IC50 (HPK1): ≤ 5 nM
activity at 0.33 µM (Human Jurkat-E6-1 cells): 273%

CN(C)C1(C)CCN(c2ccc3cc2OCCCOCc2cccc(F)c2-c2cc4c-3n[nH]c4cn2)CC1 [Compound 111, 1-{17-fluoro-7,11-dioxa-20,23,24-triazapentacyclo[17.5.2.1^2,6.0^13,18.0^22,25]heptacosa-1(24),2,4,6(27),13(18),14,16,19,21,25-decaen-5-yl}-N,N,4-trimethylpiperidin-4-amine]
IC50 (HPK1): ≤ 5 nM
activity at 0.33 µM (Human Jurkat-E6-1 cells): 388%

CN1CCN(c2ccc3cc2OCCCOCc2cccc(F)c2-c2cc4c-3n[nH]c4cn2)C[C@@H]1CO [Compound 121, [(2R)-4-{17-fluoro-7,11-dioxa-20,23,24-triazapentacyclo[17.5.2.1^2,6.0^13,18.0^22,25]heptacosa-1(24),2,4,6(27),13(18),14,16,19,21,25-decaen-5-yl}-1-methylpiperazin-2-yl]methanol]
IC50 (HPK1): ≤ 5 nM
activity at 0.33 µM (Human Jurkat-E6-1 cells): 467%

OCCN1C2CCC1CN(c1ccc3cc1OCCCOc1cccc(F)c1-c1cc4c-3n[nH]c4cn1)C2 [Compound 145, 2-(3-{16-fluoro-7,11-dioxa-19,22,23-triazapentacyclo[16.5.2.1^2,6.0^12,17.0^21,24]hexacosa-1(23),2,4,6(26),12(17),13,15,18,20,24-decaen-5-yl}-3,8-diazabicyclo[3.2.1]octan-8-yl)ethan-1-ol]
IC50 (HPK1): ≤ 5 nM
activity at 1 µM (Human Jurkat-E6-1 cells): 512%
